Assay results: PubChem BioAssay (NCI)
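Interpolation was linear, between the two tested concentrations surrounding the appropriate level; five concentrations were tested over 48 hours in 96-well plates. TGI marks complete inhibition of growth.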

Assays:
Assay in all cases: DTP human tumour cell line panel, 48 h
786-0 renal = tested on: 786-0 renal
A498 renal = tested on: A498 renal
A549 NSCLC = tested on: A549 NSCLC
ACHN renal = tested on: ACHN renal
BT-549 breast = tested on: BT-549 breast
CAKI-1 renal = tested on: CAKI-1 renal
CCRF-CEM leukemia = tested on: CCRF-CEM leukemia
COLO 205 colon = tested on: COLO 205 colon
DU-145 prostate = tested on: DU-145 prostate
EKVX NSCLC = tested on: EKVX NSCLC
HCC-2998 colon = tested on: HCC-2998 colon
HCT-116 colon = tested on: HCT-116 colon
HCT-15 colon = tested on: HCT-15 colon
HL-60(TB) leukemia = tested on: HL-60(TB) leukemia
HOP-62 NSCLC = tested on: HOP-62 NSCLC
HOP-92 NSCLC = tested on: HOP-92 NSCLC
HS 578T breast = tested on: HS 578T breast
HT29 colon = tested on: HT29 colon
IGROV1 ovarian = tested on: IGROV1 ovarian
K-562 leukemia = tested on: K-562 leukemia
KM12 colon = tested on: KM12 colon
LOX IMVI melanoma = tested on: LOX IMVI melanoma
M14 melanoma = tested on: M14 melanoma
MALME-3M melanoma = tested on: MALME-3M melanoma
MCF7 breast = tested on: MCF7 breast
MDA-MB-231 breast = tested on: MDA-MB-231 breast
MDA-MB-435 = tested on: MDA-MB-435
MDA-N = tested on: MDA-N
MOLT-4 leukemia = tested on: MOLT-4 leukemia
NCI-H226 lung = tested on: NCI-H226 lung
NCI-H23 lung = tested on: NCI-H23 lung
NCI-H460 lung = tested on: NCI-H460 lung
NCI-H522 lung = tested on: NCI-H522 lung
NCI/ADR-RES ovarian = tested on: NCI/ADR-RES ovarian
OVCAR-3 ovarian = tested on: OVCAR-3 ovarian
OVCAR-4 ovarian = tested on: OVCAR-4 ovarian
OVCAR-5 ovarian = tested on: OVCAR-5 ovarian
OVCAR-8 ovarian = tested on: OVCAR-8 ovarian
PC-3 prostate = tested on: PC-3 prostate
RPMI-8226 leukemia = tested on: RPMI-8226 leukemia
SF-268 CNS = tested on: SF-268 CNS
SF-295 CNS = tested on: SF-295 CNS
SF-539 CNS = tested on: SF-539 CNS
SK-MEL-2 melanoma = tested on: SK-MEL-2 melanoma
SK-MEL-28 melanoma = tested on: SK-MEL-28 melanoma
SK-MEL-5 melanoma = tested on: SK-MEL-5 melanoma
SK-OV-3 ovarian = tested on: SK-OV-3 ovarian
SN12C renal = tested on: SN12C renal
SNB-19 CNS = tested on: SNB-19 CNS
SNB-75 CNS = tested on: SNB-75 CNS
SR leukemia = tested on: SR leukemia
SW-620 colon = tested on: SW-620 colon
T-47D breast = tested on: T-47D breast
TK-10 renal = tested on: TK-10 renal
UACC-257 melanoma = tested on: UACC-257 melanoma
UACC-62 melanoma = tested on: UACC-62 melanoma
UO-31 renal = tested on: UO-31 renal
RXF 393 renal = tested on: RXF 393 renal
U251 CNS = tested on: U251 CNS

In the case of `N#Cc1c(-c2ccc(Cl)cc2)cc(-c2nc3ccccc3[nH]2)nc1N`, the TGI (786-0 renal) is reported as 23.3 µM, the TGI (A498 renal) is reported as 22.6 µM and the TGI (A549 NSCLC) is reported as 20.9 µM. The TGI (ACHN renal) was 45.2 µM, the TGI (BT-549 breast) was 30.5 µM and the TGI (CAKI-1 renal) was 46.6 µM. For the same compound, the TGI (CCRF-CEM leukemia) was 45.3 µM, the TGI (COLO 205 colon) was 20.1 µM and the TGI (DU-145 prostate) was 20.2 µM. It also gave a TGI (EKVX NSCLC) of 46.1 µM, a TGI (HCC-2998 colon) of 14.3 µM and a TGI (HCT-116 colon) of 22.5 µM. The TGI (HCT-15 colon) was 36.3 µM, the TGI (HL-60(TB) leukemia) was 58.7 µM and the TGI (HOP-62 NSCLC) was 38.5 µM. It also gave a TGI (HOP-92 NSCLC) of 26.3 µM, a TGI (HS 578T breast) of 73.3 µM and a TGI (HT29 colon) of 25.5 µM. The TGI (IGROV1 ovarian) was 22.2 µM, the TGI (K-562 leukemia) was 54.9 µM and the TGI (KM12 colon) was 25.1 µM. The TGI (LOX IMVI melanoma) was 28 µM, the TGI (M14 melanoma) was 16.2 µM and the TGI (MALME-3M melanoma) was 32.5 µM. The TGI (MCF7 breast) was 20.1 µM, the TGI (MDA-MB-231 breast) was 26.8 µM and the TGI (MDA-MB-435) was 18.8 µM. For the same compound, the TGI (MDA-N) was 23.7 µM, the TGI (MOLT-4 leukemia) was 26.8 µM and the TGI (NCI-H226 lung) was 28 µM. For the same compound, the TGI (NCI-H23 lung) was 35.3 µM, the TGI (NCI-H460 lung) was 21.6 µM and the TGI (NCI-H522 lung) was 35.1 µM. The TGI (NCI/ADR-RES ovarian) was 48.4 µM, the TGI (OVCAR-3 ovarian) was 41.8 µM and the TGI (OVCAR-4 ovarian) was 36.2 µM. It also gave a TGI (OVCAR-5 ovarian) of 43.4 µM, a TGI (OVCAR-8 ovarian) of 49.5 µM and a TGI (PC-3 prostate) of 32.6 µM. For the same compound, the TGI (RPMI-8226 leukemia) was 47.1 µM, the TGI (SF-268 CNS) was 34.6 µM and the TGI (SF-295 CNS) was 49.1 µM. The TGI (SF-539 CNS) was 31.7 µM, the TGI (SK-MEL-2 melanoma) was 25.9 µM and the TGI (SK-MEL-28 melanoma) was 36 µM. For the same compound, the TGI (SK-MEL-5 melanoma) was 20.6 µM, the TGI (SK-OV-3 ovarian) was 77.4 µM and the TGI (SN12C renal) was 27.5 µM. The TGI (SNB-19 CNS) was 27.5 µM, the TGI (SNB-75 CNS) was 31.2 µM and the TGI (SR leukemia) was 35.1 µM. The TGI (SW-620 colon) was 42.6 µM, the TGI (T-47D breast) was 19.4 µM and the TGI (TK-10 renal) was 27.3 µM. For the same compound, the TGI (UACC-257 melanoma) was 18.5 µM, the TGI (UACC-62 melanoma) was 21.2 µM and the TGI (UO-31 renal) was 21.9 µM.

`COc1ccccc1N1C(=O)/C(=C\c2cccc(Oc3ccccc3)c2)S(=O)(=O)C1c1ccccc1` (configuration not stated) was tested, and the TGI (786-0 renal) was greater than 100 µM, the TGI (A498 renal) was greater than 100 µM and the TGI (A549 NSCLC) was greater than 100 µM. The TGI (ACHN renal) was greater than 100 µM, the TGI (BT-549 breast) was 83.6 µM and the TGI (CAKI-1 renal) was greater than 100 µM. For the same compound, the TGI (CCRF-CEM leukemia) was greater than 100 µM, the TGI (COLO 205 colon) was 88.3 µM and the TGI (DU-145 prostate) was greater than 100 µM. The TGI (EKVX NSCLC) was greater than 100 µM, the TGI (HCC-2998 colon) was greater than 100 µM and the TGI (HCT-116 colon) was greater than 100 µM. For the same compound, the TGI (HCT-15 colon) was greater than 100 µM, the TGI (HOP-62 NSCLC) was greater than 100 µM and the TGI (HOP-92 NSCLC) was greater than 100 µM. The TGI (K-562 leukemia) was greater than 100 µM, the TGI (KM12 colon) was greater than 100 µM and the TGI (LOX IMVI melanoma) was greater than 100 µM. The TGI (M14 melanoma) was greater than 100 µM, the TGI (MALME-3M melanoma) was greater than 100 µM and the TGI (MCF7 breast) was greater than 100 µM. It also gave a TGI (MDA-MB-231 breast) greater than 100 µM, a TGI (MDA-MB-435) greater than 100 µM and a TGI (MDA-N) greater than 100 µM. The TGI (MOLT-4 leukemia) was 32.8 µM, the TGI (NCI-H226 lung) was greater than 100 µM and the TGI (NCI-H23 lung) was greater than 100 µM. The TGI (NCI-H460 lung) was greater than 100 µM, the TGI (NCI-H522 lung) was greater than 100 µM and the TGI (NCI/ADR-RES ovarian) was 67.6 µM. The TGI (OVCAR-3 ovarian) was greater than 100 µM, the TGI (OVCAR-4 ovarian) was greater than 100 µM and the TGI (OVCAR-5 ovarian) was greater than 100 µM. For the same compound, the TGI (PC-3 prostate) was greater than 100 µM, the TGI (RXF 393 renal) was greater than 100 µM and the TGI (SF-295 CNS) was greater than 100 µM. For the same compound, the TGI (SK-MEL-2 melanoma) was 70.5 µM, the TGI (SK-MEL-28 melanoma) was greater than 100 µM and the TGI (SK-MEL-5 melanoma) was 53.7 µM. For the same compound, the TGI (SK-OV-3 ovarian) was greater than 100 µM, the TGI (SN12C renal) was greater than 100 µM and the TGI (SNB-19 CNS) was greater than 100 µM. The TGI (SR leukemia) was 56.2 µM, the TGI (SW-620 colon) was greater than 100 µM and the TGI (T-47D breast) was greater than 100 µM. The TGI (TK-10 renal) was greater than 100 µM, the TGI (U251 CNS) was greater than 100 µM and the TGI (UACC-257 melanoma) was greater than 100 µM. For the same compound, the TGI (UACC-62 melanoma) was greater than 100 µM and the TGI (UO-31 renal) was greater than 100 µM.
